Read-outs that look alike come from different tables or passages of the source.
Biological target: T1, G1 APOL1 (Homo sapiens, UniProt O14791, I384M/S342G)
T1 construct: expressed in transfected cells
T1 sequence (O14791 28-398 S342G/I384M): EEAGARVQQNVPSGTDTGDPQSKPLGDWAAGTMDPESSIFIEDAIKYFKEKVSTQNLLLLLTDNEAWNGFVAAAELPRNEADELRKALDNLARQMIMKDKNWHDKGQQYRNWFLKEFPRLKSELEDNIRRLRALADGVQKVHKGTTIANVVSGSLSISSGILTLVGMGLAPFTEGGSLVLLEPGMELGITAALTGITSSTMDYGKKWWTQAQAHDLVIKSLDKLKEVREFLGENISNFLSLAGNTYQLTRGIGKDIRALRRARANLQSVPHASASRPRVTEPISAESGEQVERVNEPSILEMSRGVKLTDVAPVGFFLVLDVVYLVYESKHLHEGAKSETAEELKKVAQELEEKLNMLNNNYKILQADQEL
Assay: Acute APOL1 Thallium Assay with inducible stable clones of HEK 293 cells
Assay type: cell-based
Settings: HEK 293 T-Rex inducible stable clone expressing G1 APOL1
How it was run: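 APOL1 pore function was measured as thallium influx, detected by a Tl+-sensitive fluorescent dye loaded as AM ester, on a FLIPR Tetra after Tl+ addition. Cells were HEK T-Rex G1 APOL1 clone DC3.25, 26,000 per well, induced with tetracycline at plating in Opti-MEM assay medium.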

[1] = read-out: Thallium Assay (IC50)

IC50 [1] [nM]	SMILES	IC50 (Thallium Assay (IC50)) [nM]
> 1000	C[C@@H](N)C(=O)NC[C@H]1C[C@H](c2c(-c3ccc(F)cc3)[nH]c3c(F)cc(F)cc32)C1 [Compound 236]	–
> 1000	O=C1C[C@H](C(=O)NC[C@H]2C[C@H](c3c(-c4ccc(F)cc4)[nH]c4c(F)cc(F)cc43)C2)N1 [Compound 237]	–
> 1000	O=C(Cc1cnccn1)NC[C@H]1C[C@H](c2c(-c3ccc(F)cc3)[nH]c3c(F)cc(F)cc32)C1 [Compound 238]	–
> 1000	CN1CCC(CC(=O)NC[C@H]2C[C@@H](c3c(-c4ccc(F)cc4)[nH]c4c(F)cc(F)cc43)C2)CC1 [Compound 239]	–
> 1000	CO[C@H](C)C(=O)NC[C@H]1C[C@H](c2c(-c3ccc(F)cc3)[nH]c3c(F)cc(F)cc32)C1 [Compound 240]	–
> 1000	O=C1C[C@@H](C(=O)NC[C@H]2C[C@@H](c3c(-c4ccc(F)cc4)[nH]c4c(F)cc(F)cc43)C2)N1 [Compound 241]	–
> 1000	NC(=O)CC(=O)NC[C@H]1C[C@@H](c2c(-c3ccc(F)cc3)[nH]c3c(F)cc(F)cc32)C1 [Compound 243]	–
> 1000	NC1(C(=O)NC[C@H]2C[C@H](c3c(-c4ccc(F)cc4)[nH]c4c(F)cc(F)cc43)C2)CCC1 [Compound 244]	–
> 1000	O=C(NC[C@H]1C[C@H](c2c(-c3ccc(F)cc3)[nH]c3c(F)cc(F)cc32)C1)[C@H]1CCN1 [Compound 245]	–
> 1000	O=C(NC[C@H]1C[C@H](c2c(-c3ccc(F)cc3)[nH]c3c(F)cc(F)cc32)C1)[C@@H]1C[C@H](F)CN1 [Compound 246]	–
> 1000	O=C(NC[C@H]1C[C@@H](c2c(-c3ccc(F)cc3)[nH]c3c(F)cc(F)cc32)C1)C(O)C1CC1 (some centres unmarked) [Compound 247]	–
> 1000	O=C(Cc1ncccn1)NC[C@H]1C[C@H](c2c(-c3ccc(F)cc3)[nH]c3c(F)cc(F)cc32)C1 [Compound 248]	–
> 1000	O=C1CC[C@H](C(=O)NC[C@H]2C[C@@H](c3c(-c4ccc(F)cc4)[nH]c4c(F)cc(F)cc43)C2)N1 [Compound 249]	–
> 1000	CC(=O)NCC(=O)NC[C@H]1C[C@H](c2c(-c3ccc(F)cc3)[nH]c3c(F)cc(F)cc32)C1 [Compound 250]	–
> 1000	O=C(Cc1ccncn1)NC[C@H]1C[C@H](c2c(-c3ccc(F)cc3)[nH]c3c(F)cc(F)cc32)C1 [Compound 251]	–
> 1000	CC(C)(C)OC(=O)N1C[C@@H](O)C[C@H]1C(=O)NC[C@H]1C[C@H](c2c(-c3ccc(F)cc3)[nH]c3c(F)cc(F)cc32)C1 [Compound 252]	–
> 1000	O=C1CCC[C@@H](C(=O)NC[C@H]2C[C@H](c3c(-c4ccc(F)cc4)[nH]c4c(F)cc(F)cc43)C2)N1 [Compound 253]	–
> 1000	O=C(NC[C@H]1C[C@H](c2c(-c3ccc(F)cc3)[nH]c3c(F)cc(F)cc32)C1)[C@@H]1C[C@H](O)CN1 [Compound 254]	–
> 1000	CC(C)(C)OC(=O)N1CC[C@H](O)[C@H]1C(=O)NC[C@H]1C[C@H](c2c(-c3ccc(F)cc3)[nH]c3c(F)cc(F)cc32)C1 [Compound 255]	–
> 1000	CC(=O)N1CC[C@@H](C(=O)NC[C@H]2C[C@H](c3c(-c4ccc(F)cc4)[nH]c4c(F)cc(F)cc43)C2)C1 [Compound 256]	–
> 1000	O=C(NC[C@H]1C[C@H](c2c(-c3ccc(F)cc3)[nH]c3c(F)cc(F)cc32)C1)[C@H]1COCCN1 [Compound 257]	–
> 1000	CC[C@H](NC(=O)OC(C)(C)C)C(=O)NC[C@H]1C[C@H](c2c(-c3ccc(F)cc3)[nH]c3c(F)cc(F)cc32)C1 [Compound 258]	–
> 1000	CN1CCC(CC(=O)NC[C@H]2C[C@@H](c3c(-c4ccc(F)cc4)[nH]c4c(F)cc(F)cc43)C2)C1 (some centres unmarked) [Compound 260]	–
> 1000	O=C(CC1CS(=O)(=O)C1)NC[C@H]1C[C@H](c2c(-c3ccc(F)cc3)[nH]c3c(F)cc(F)cc32)C1 [Compound 261]	–

IC50 [1] [nM]	SMILES	IC50 (Thallium Assay (IC50)) [nM]
> 1000	CS(=O)(=O)CCC(=O)NC[C@H]1C[C@@H](c2c(-c3ccc(F)cc3)[nH]c3c(F)cc(F)cc32)C1 [Compound 262]	–
> 1000	CCS(=O)(=O)NCC(=O)NC[C@H]1C[C@@H](c2c(-c3ccc(F)cc3)[nH]c3c(F)cc(F)cc32)C1 [Compound 263]	–
> 1000	N[C@@H](C(=O)NC[C@H]1C[C@H](c2c(-c3ccc(F)cc3)[nH]c3c(F)cc(F)cc32)C1)C1CC1 [Compound 264]	–
> 1000	O=C(NC[C@H]1C[C@H](c2c(-c3ccc(F)cc3)[nH]c3c(F)cc(F)cc32)C1)c1ncccn1 [Compound 265]	–
> 1000	CC(F)(F)C(=O)NC[C@H]1C[C@@H](c2c(-c3ccc(F)cc3)[nH]c3c(F)cc(F)cc32)C1 [Compound 266]	–
> 1000	CC[C@@H](N)C(=O)NC[C@H]1C[C@H](c2c(-c3ccc(F)cc3)[nH]c3c(F)cc(F)cc32)C1 [Compound 267]	–
> 1000	O=C1CC[C@H](C(=O)NC[C@H]2C[C@H](c3c(-c4ccc(F)cc4)[nH]c4c(F)cc(F)cc43)C2)N1 [Compound 268]	–
> 1000	O=C1NCC(C(=O)NC[C@H]2C[C@H](c3c(-c4ccc(F)cc4)[nH]c4c(F)cc(F)cc43)C2)O1 (some centres unmarked) [Compound 269]	–
> 1000	CO[C@@H](C)C(=O)NC[C@H]1C[C@H](c2c(-c3ccc(F)cc3)[nH]c3c(F)cc(F)cc32)C1 [Compound 270]	–
> 1000	CS(=O)(=O)NCC(=O)NC[C@H]1C[C@@H](c2c(-c3ccc(F)cc3)[nH]c3c(F)cc(F)cc32)C1 [Compound 271]	–
> 1000	O=C(CN1CCOCC1)NC[C@H]1C[C@@H](c2c(-c3ccc(F)cc3)[nH]c3c(F)cc(F)cc32)C1 [Compound 272]	–
> 1000	O=C1CC(C(=O)NC[C@H]2C[C@H](c3c(-c4ccc(F)cc4)[nH]c4c(F)cc(F)cc43)C2)CN1 (some centres unmarked) [Compound 273]	–
> 1000	CC(=O)N1CC[C@H](C(=O)NC[C@H]2C[C@H](c3c(-c4ccc(F)cc4)[nH]c4c(F)cc(F)cc43)C2)C1 [Compound 274]	–
> 1000	O=C(NC[C@H]1C[C@H](c2c(-c3ccc(F)cc3)[nH]c3c(F)cc(F)cc32)C1)[C@H]1C[C@@H](O)CN1 [Compound 275]	–
> 1000	O=C(NC[C@H]1C[C@H](c2c(-c3ccc(F)cc3)[nH]c3c(F)cc(F)cc32)C1)[C@@H]1COCCN1 [Compound 276]	–
> 1000	CC(C)(C)OC(=O)N[C@@H](C(=O)NC[C@H]1C[C@H](c2c(-c3ccc(F)cc3)[nH]c3c(F)cc(F)cc32)C1)C1CC1 [Compound 277]	–
> 1000	Cn1ccc(CC(=O)NC[C@H]2C[C@@H](c3c(-c4ccc(F)cc4)[nH]c4c(F)cc(F)cc43)C2)n1 [Compound 278]	–
–	CC(C)(C)OC(=O)N1CCC[C@@H]1C(=O)NC[C@H]1C[C@H](c2c(-c3ccc(F)cc3)[nH]c3c(F)cc(F)cc32)C1 [Compound 279]	> 1000
> 1000	NS(=O)(=O)CCCC(=O)NC[C@H]1C[C@@H](c2c(-c3ccc(F)cc3)[nH]c3c(F)cc(F)cc32)C1 [Compound 280]	–
> 1000	O=C(NC[C@H]1C[C@H](c2c(-c3ccc(F)cc3)[nH]c3c(F)cc(F)cc32)C1)[C@H]1CCCN1 [Compound 282]	–
> 1000	O=C(NC[C@H]1C[C@H](c2c(-c3ccc(F)cc3)[nH]c3c(F)cc(F)cc32)C1)C1(O)CC1 [Compound 283]	–
> 1000	CC1(C(=O)NC[C@H]2C[C@@H](c3c(-c4ccc(F)cc4)[nH]c4c(F)cc(F)cc43)C2)CC(=O)C1 [Compound 284]	–
> 1000	O=C(CC1CC(=O)NC(=O)C1)NC[C@H]1C[C@@H](c2c(-c3ccc(F)cc3)[nH]c3c(F)cc(F)cc32)C1 [Compound 285]	–

Reference: patent US12281102B2, “Inhibitors of APOL1 and methods of using same” (Vertex Pharmaceuticals Incorporated, priority 2020, dated 2025)
